Measurements: patent US10294229B2, “Heteroaryl substituted aminopyridine compounds” (BRISTOL-MYERS SQUIBB COMPANY, priority 2015, dated 2019)

Columns and labels:
IRAK4 = IRAK4 (Homo sapiens (Human), UniProt Q9NWZ3); test: IRAK4 Inhibition Assay; assay type: biochemical; conditions: ATP 500 μM; IRAK4 0.6 nM
Summary of the method: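 Mobility-shift readout: phosphorylated and unphosphorylated fluorescent peptide (1.5 μM) resolved by electrophoresis after a 60 min room-temperature reaction stopped with EDTA. Reaction holds 0.6 nM IRAK4, 500 μM ATP and 1.6% DMSO in HEPES pH 7.2/MgCl2/Brij 35/DTT buffer; percent inhibition set against vehicle and no-enzyme controls.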

[1] = tested on: Human whole blood stimulated with a TLR2 agonist (lipoteichoic acid), IL-6 levels; test: IRAK4 Whole Blood Assay; assay type: cell-based; conditions: Homo sapiens, lipoteichoic acid 10 μg/mL
Summary of the method: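 ACD-A-anticoagulated human whole blood was preincubated with compounds for 60 min at 37 °C under 5% CO2. It was then stimulated with 10 μg/mL lipoteichoic acid (final) in RPMI for 5 h. IL-6 in plasma supernatants was measured by flow cytometry bead assay.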

[2] = Caco-2 Permeability Assay; assay type: in vitro ADME; conditions: human, Caco-2, test compound 3 μM
Protocol: Caco-2 Permeability Assay
Thirteen to 27 days prior to assay, Caco-2 cells were seeded onto collagen-coated polycarbonate filter membranes in 24-well transwell plates at a density of 1.45×10^5 cells/cm^2, approximately 4.8×10^4 cells per well. The cells were grown in a culture medium consisting of DMEM supplemented with 10% fetal bovine serum, 10 mM HEPES, 1% nonessential amino acids, 2 mM L-glutamine, 100 U/mL penicillin-G, and 100 μg/mL streptomycin. The culture medium was replaced every 3 days and the cells were maintained at 37° C. in a 95% relative humidity and 5% CO2 atmosphere. The cells were evaluated for tight junction formation just prior to assay. The test compound was solubilized to 10 mM in 100% DMSO and diluted to 3 μM in assay buffer. Permeability studies were initiated by adding 200 μL assay buffer plus/minus compound to the apical transwell compartment and 600 μL assay buffer plus/minus compound to the basolateral compartment of the 24-well transwell low-binding cluster plate. For apical-to-basolateral (A to B) permeability (absorptive direction), buffer containing compound was placed in the apical compartment (donor wells), while buffer alone was placed in the corresponding basolateral compartments (receiver wells). For basolateral-to-apical (B to A) permeability (secretive direction), buffer containing compound was placed in the basolateral compartment (donor wells), while buffer alone was placed in the corresponding apical compartments (receiver wells). Transwells were then incubated for 2 hours at 37° C. in a 95% relative humidity and 5% CO2 atmosphere with gentle agitation. Following incubation, 100 μL was removed from each apical and basolateral compartment and transferred to 96-well low binding plates that had been previously loaded with 100 μL/well of acetonitrile containing 250 nM propranolol, 250 nM diclofenac, and 500 nM tolbutamide as internal standards. The samples were subsequently analyzed by LC-MS/MS to determine concentrations of compound.

Sequence of IRAK4 (Q9NWZ3 whole entry, species assumed): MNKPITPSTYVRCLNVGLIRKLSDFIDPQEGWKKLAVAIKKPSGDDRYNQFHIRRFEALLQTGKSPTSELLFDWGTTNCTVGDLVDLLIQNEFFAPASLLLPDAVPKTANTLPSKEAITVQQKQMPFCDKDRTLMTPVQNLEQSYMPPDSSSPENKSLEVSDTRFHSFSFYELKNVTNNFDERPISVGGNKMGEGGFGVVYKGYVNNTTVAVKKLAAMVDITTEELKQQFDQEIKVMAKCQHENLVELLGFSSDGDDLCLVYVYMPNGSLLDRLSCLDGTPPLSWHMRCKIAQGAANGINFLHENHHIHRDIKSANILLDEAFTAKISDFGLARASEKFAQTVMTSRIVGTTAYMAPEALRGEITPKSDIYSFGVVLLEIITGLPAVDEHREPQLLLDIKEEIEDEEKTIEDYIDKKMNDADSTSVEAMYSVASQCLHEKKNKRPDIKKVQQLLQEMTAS

| Compound | IC50 (IRAK4) [nM] | EC50 [1] [nM] | Papp at 2 h, 3 µM [2] [×10⁻⁶ cm/s] |
| --- | --- | --- | --- |
| CC(=O)N1CC[C@@H](c2cc(-c3cnc(-n4ncc5cc(C#N)cnc54)cc3NC(C)C)on2)C1 [Example 406, (R)-1-(5-(3-(1-acetylpyrrolidin-3-yl)isoxazol-5-yl)-4-(isopropylamino)pyridin-2-yl)-1H-pyrazolo [3,4-b]pyridine-5-carbonitrile] | 3 | 470 | 16.3 |
| CC(C)Nc1cc(-n2cnc3cc(C#N)cnc32)ncc1-c1cn(C2CN(C)C2)nn1 [Example 152, 3-(4-(isopropylamino)-5-(1-(1-methylazetidin-3-yl)-1H-1,2,3-triazol-4-yl)pyridin-2-yl)-3H-imidazo[4,5-b]pyridine-6-carbonitrile] | 4 | 750 | 15.8 |
| CC(C)Nc1cc(-n2ncc3cc(C#N)cnc32)ncc1-c1cn(CCc2cccnc2)nn1 [Example 119, 1-(4-(isopropylamino)-5-(1-(2-(pyridin-3-yl)ethyl)-1H-1,2,3-triazol-4-yl)pyridin-2-yl)-1H-pyrazolo[3,4-b]pyridine-5-carbonitrile] | 2 | 430 | 5 |
| COC(=O)N1CC(c2cc(-c3cnc(-n4ncc5cc(C#N)cnc54)cc3NC(C)C)on2)C1 [Example 401, methyl 3-(5-(6-(5-cyano-1H-pyrazolo[3,4-b]pyridin-1-yl)-4-(isopropylamino)pyridin-3-yl)isoxazol-3-yl)azetidine-1-carboxylate] | 4 | 380 | 28 |
| CCCn1cc(-c2cnc(-n3ncc4cc(C#N)cnc43)cc2NC2CC2)nn1 [Example 34, 1-(4-(cyclopropylamino)-5-(1-propyl-1H-1,2,3-triazol-4-yl)pyridin-2-yl)-1H-pyrazolo[3,4-b]pyridine-5-carbonitrile] | 4 | 660 | 48.1 |
| CC(C)Nc1cc(-n2ncc3cc(C#N)cnc32)ncc1-c1cn(CC2CCO2)nn1 (stereo not shown) [Example 123, 1-(4-(isopropylamino)-5-(1-(oxetan-2-ylmethyl)-1H-1,2,3-triazol-4-yl)pyridin-2-yl)-1H-pyrazolo[3,4-b]pyridine-5-carbonitrile] | 5 | 240 | 24.4 |
| N#Cc1cnc2c(cnn2-c2cc(NC3CC3)c(-c3cn([C@@H]4CNCC[C@H]4O)nn3)cn2)c1 (relative stereo) [Example 207, 1-(4-(cyclopropylamino)-5-(1-((trans)-4-hydroxypiperidin-3-yl)-1H-1,2,3-triazol-4-yl)pyridin-2-yl)-1H-pyrazolo[3,4-b]pyridine-5-carbonitrile] | – | 1330 | < 1.5 |
| CC(C)Nc1cc(-n2ncc3cc(C#N)cnc32)ncc1-c1cn([C@H]2CCNC[C@H]2O)nn1 [Example 177, 1-(5-(1-((3R,4S)-3-hydroxypiperidin-4-yl)-1H-1,2,3-triazol-4-yl)-4-(isopropylamino)pyridin-2-yl)-1H-pyrazolo[3,4-b]pyridine-5-carbonitrile] | 13 | – | < 1.5 |
| CC(C)(O)CCc1cn(-c2cnc(-n3ncc4cc(C#N)cnc43)cc2NC2CCC(F)CC2)nn1 (stereo not shown) [Example 374, 1-(4-(((1r,4r)-4-fluorocyclohexyl)amino)-5-(4-(3-hydroxy-3-methylbutyl)-1H-1,2,3-triazol-1-yl)pyridin-2-yl)-1H-pyrazolo[3,4-b]pyridine-5-carbonitrile] | – | 380 | 3.2 |
| COC(=O)NCC1CC(c2cnc(-n3ncc4cc(C#N)cnc43)cc2NC(C)C)=NO1 (single isomer, unassigned) [Example 436, Methyl ((3-(6-(5-cyano-1H-pyrazolo[3,4-b]pyridin-1-yl)-4-(isopropylamino)pyridin-3-yl)-4,5-dihydroisoxazol-5-yl)methyl)carbamate] | – | 290 | 31.9 |
| COC(=O)NC1CCC(c2cc(-c3cnc(-n4ncc5cc(C#N)cnc54)cc3NC(C)C)on2)CC1 (stereo not shown) [Example 411, methyl ((1s,4s)-4-(5-(6-(5-cyano-1H-pyrazolo[3,4-b]pyridin-1-yl)-4-(isopropylamino)pyridin-3-yl)isoxazol-3-yl)cyclohexyl)carbamate] | – | 430 | 26.9 |
| CC(C)Nc1cc(-n2ncc3cc(C#N)cnc32)ncc1-n1cc(C2CCN(C(=O)CC(C)(C)O)CC2)nn1 [Example 360, 1-(5-(4-(1-(3-hydroxy-3-methylbutanoyl)piperidin-4-yl)-1H-1,2,3-triazol-1-yl)-4-(isopropylamino)pyridin-2-yl)-1H-pyrazolo[3,4-b]pyridine-5-carbonitrile] | – | 310 | 3.6 |
| CC(C)(O)CCc1cn(-c2cnc(-n3ncc4cc(C#N)cnc43)cc2NC2COC2)nn1 [Example 359, 1-(5-(4-(3-hydroxy-3-methylbutyl)-1H-1,2,3-triazol-1-yl)-4-(oxetan-3-ylamino)pyridin-2-yl)-1H-pyrazolo[3,4-b]pyridine-5-carbonitrile] | – | 220 | < 1.5 |
| CCNC1CCC(c2cn(-c3cnc(-n4ncc5cc(C#N)cnc54)cc3NC(C)C)nn2)CC1 (stereo not shown) [Example 356, 1-(5-(4-((1s,4s)-4-(ethylamino)cyclohexyl)-1H-1,2,3-triazol-1-yl)-4-(isopropylamino)pyridin-2-yl)-1H-pyrazolo[3,4-b]pyridine-5-carbonitrile] | – | 270 | < 1.5 |
| CC(C)Nc1cc(-n2ncc3cc(C#N)cnc32)ncc1-c1cn([C@@H]2CCCC[C@@]2(C)O)nn1 (relative stereo) [Example 64, 1-(5-(1-((1R,2R)-2-hydroxy-2-methylcyclohexyl)-1H-1,2,3-triazol-4-yl)-4-(isopropylamino)pyridin-2-yl)-1H-pyrazolo[3,4-b]pyridine-5-carbonitrile] | 5 | – | 14.8 |
| CC(C)Nc1cc(-n2ncc3cc(C#N)cnc32)ncc1-c1cn([C@@H]2CCNC[C@@H]2F)nn1 (relative stereo) [Example 209, 1-(5-(1-((cis)-3-fluoropiperidin-4-yl)-1H-1,2,3-triazol-4-yl)-4-(isopropylamino)pyridin-2-yl)-1H-pyrazolo[3,4-b]pyridine-5-carbonitrile] | – | 490 | 2.4 |
| CCCn1cc(-c2cnc(-n3cnc4cc(C#N)cnc43)cc2NC(C)C)nn1 [Example 40, 3-(4-(isopropylamino)-5-(1-propyl-1H-1,2,3-triazol-4-yl)pyridin-2-yl)-3H-imidazo[4,5-b]pyridine-6-carbonitrile] | 3 | – | 27.8 |
| CC(=O)NC1CCC(c2cc(-c3cnc(-n4ncc5cc(C#N)cnc54)cc3NC(C)C)on2)CC1 (stereo not shown) [Example 410, N-((1s,4s)-4-(5-(6-(5-cyano-1H-pyrazolo[3,4-b]pyridin-1-yl)-4-(isopropylamino)pyridin-3-yl)isoxazol-3-yl)cyclohexyl)acetamide] | – | 300 | 14.8 |
| CC(C)Nc1cc(-n2ncc3cc(C#N)cnc32)ncc1-c1cc(CC(C)(C)O)on1 [Example 438, 1-(5-(5-(2-hydroxy-2-methylpropyl)isoxazol-3-yl)-4-(isopropylamino)pyridin-2-yl)-1H-pyrazolo[3,4-b]pyridine-5-carbonitrile] | – | 230 | 27.3 |
| CC(C)Nc1cc(-n2ncc3cc(C#N)cnc32)ncc1-c1cn(C2CN(CC(F)F)C2)nn1 [Example 153] | – | 270 | 17.9 |
